pIC50: −log10 of the molar value.
Tests used:
[1] = target: T1, Human synovial fluid phospholipase A2 (HSF-PLA2) (Homo sapiens, UniProt P14555); assay: Human synovial fluid phospholipase A2 (HSF-PLA2) assay; format: biochemical; conditions: [14C]-oleate-labeled E. coli substrate, pH 7.0, 5 min pre-incubation, 37° C., 30 minutes
T1 construct: Human synovial fluid phospholipase A2 was purified approximately 5000 fold; from tissue; host or cells: human synovial fluid
T1 sequence (P14555 21-144): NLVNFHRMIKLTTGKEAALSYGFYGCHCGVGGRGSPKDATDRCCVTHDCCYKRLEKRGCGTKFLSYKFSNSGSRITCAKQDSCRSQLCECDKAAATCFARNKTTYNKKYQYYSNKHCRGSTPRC
Procedure: Human synovial fluid phospholipase A2 was purified approximately 5000 fold following the procedures of Franson et al., Lung 160, 275-284 (1982) and Fawzy et al., Bio Phys. J. 49, 533a (1986). Following purification the enzyme activity was measured by established methodology using [^14 C]-oleate-labeled, autoclaved E. coli as the substrate as also shown in the above noted references. The assay was performed in a final volume of […] containing 50 mM HEPES (pH 7.0), 150 mM NaCl, 5mM CaCl2, 7 mM [14C]-oleate-labeled E. coli phospholipid and with or without the compound from one of the examples herein undergoing an assay. The compound or control vehicle was pre-incubated with the PLA2 for 5 minutes followed by addition of the E. coli substrate to initiate the reaction. The reaction was maintained at 37° C. for 30 minutes and then terminated by the addition of 2 ml tetrahydrofuran (THF). The reaction product, [14C] -oleic acid, was extracted using a 1 ml Bond Elut NH2 Solid phase extraction column. The IC50 value for the compound (mean +/- S.E.) is given in the following Table and represents the concentration of the compound required to inhibit 50% of the PLA2 activity.

[2] = tested on: LTB4 biosynthesis in HL-60 cells; assay: Assay for LTB4 production by HL-60 cells (LTB4 biosynthesis inhibition); format: cell-based; conditions: Homo sapiens; differentiated HL-60 cells, 10 min pre-incubation at 37° C., 5×10^-6 M A23187 for 5 minutes, radioimmunoassay; read-out: LTB4 Biosynthesis inhibition (HL60 cells) IC50
Procedure: HL-60 cells were induced to differentiate into granulocytes by a 4 day incubation with 0.8% (v/v) N,N-dimethyl formamide as disclosed in Fontana et al., Proc. Natl. Acad. Sci. 78 (6):3863-3866 (1981); Agins et al., Biochem. Biophys. Res. Comm. 126, 143-149 (1985); and Bonser et al., Biochemistry 20: 5297-5301 (1981). Prior to performing the assay, differentiated HL-60 cells were washed once with Hanks. balanced salt solution containing 0.35 mg/ml sodium bicarbonate and 10 mM HEPES pH 7.35 (HBSS). HL-60 cells (3×10^6 cells/ml) were pre-incubated with the compound tested or a control vehicle at 37° C. for 10 minutes, followed by 5 minute incubation with 5×10^-6 M calcium ionophore A23187 in a final volume of 1.0 ml. After incubation, the cells were pelleted by centrifugation and the LTB4 and PGE2 in the supernatant were quantified by radioimmunoassay. IC50 values (means +/- S.E.) for compounds herein that were tested are shown in the following Table and represent the concentrations of the compound required to inhibit 50% of LTB4 or PGE2 production by HL-60 cells stimulated with the calcium ionophore A23187.

Structure (SMILES) | pIC50 [1] | pIC50 [2]
CCCCCCCCCCCCCC#CC(=O)c1ccc(C(=O)O)s1 [Example 25] | 4.82 | 6.40
CCCCCCCCCCCCCC#CC(O)c1ccc(C(=O)O)s1 (stereo not drawn) [Example 24] | 4.74 | 6.05
CCCCCCCCCCCCCC#CC(=O)c1cccc(C(=O)NS(=O)(=O)c2ccccc2)c1 [Example 27] | 4.85 | –
CCCCCCCCCCCCC#CC(=O)c1ccc(C(=O)O)cc1 [Example 3] | 4.85 | 6.70
CCCCCCCCCCCCCC#CC(O)c1ccc(C(=O)O)o1 (stereo not drawn) [Example 11] | 4.55 | 5.62
CCCCCCCCCCCCCC#CC(=O)c1ccc(O)c(C(=O)O)c1 [Example 17] | 4.48 | 6.40
CCCCCCCCCCCCCC#CC(=O)c1ccc(C(=O)O)o1 [Example 12] | 4.47 | 6.30
CCCCCCCCCCCCCC#CC(O)c1cccc(-c2nn[nH]n2)c1 (stereo not drawn) [Example 29] | 4.38 | –
CCCCCC#CCCCCCCC#CC(O)c1cccc(C(=O)O)c1 (stereo not drawn) [Example 18] | 4.55 | –

Compounds with a higher pIC50 [1], results first:

pIC50 [1] | pIC50 [2] | Structure (SMILES)
4.89 | – | CCCCCCCCCCCCCC#CC(=O)c1ccccc1C(=O)O [Example 6]
4.96 | 5.10 | CCCCCCCCCCCCCC#CC(O)c1ccc(O)c(C(=O)O)c1 (stereo not drawn) [Example 16]
4.96 | 6.05 | CCCCCCCCCCCCCC#CC(=O)c1cccc(-c2nn[nH]n2)c1 [Example 30]
4.96 | 6.10 | CCCCCCCCCCCCCC#CC(=O)c1cccc(C(=O)O)c1 [Example 4]
5.60 | 6.10 | CCCCCCCCCCCCCC#CC(=O)c1cccc(C(=O)O)n1 [Example 13]

From patent US5086067A, “LTB4 synthesis inhibitors” (G. D. Searle & Co., priority 1989, dated 1992)
